3 molecules from patent publication US6297266A, “Thiazole derivatives” (Hoffmann-La Roche Inc., priority 1998, dated 2001) can be followed below.

T1 sequence (P06756 31-889 limits assumed): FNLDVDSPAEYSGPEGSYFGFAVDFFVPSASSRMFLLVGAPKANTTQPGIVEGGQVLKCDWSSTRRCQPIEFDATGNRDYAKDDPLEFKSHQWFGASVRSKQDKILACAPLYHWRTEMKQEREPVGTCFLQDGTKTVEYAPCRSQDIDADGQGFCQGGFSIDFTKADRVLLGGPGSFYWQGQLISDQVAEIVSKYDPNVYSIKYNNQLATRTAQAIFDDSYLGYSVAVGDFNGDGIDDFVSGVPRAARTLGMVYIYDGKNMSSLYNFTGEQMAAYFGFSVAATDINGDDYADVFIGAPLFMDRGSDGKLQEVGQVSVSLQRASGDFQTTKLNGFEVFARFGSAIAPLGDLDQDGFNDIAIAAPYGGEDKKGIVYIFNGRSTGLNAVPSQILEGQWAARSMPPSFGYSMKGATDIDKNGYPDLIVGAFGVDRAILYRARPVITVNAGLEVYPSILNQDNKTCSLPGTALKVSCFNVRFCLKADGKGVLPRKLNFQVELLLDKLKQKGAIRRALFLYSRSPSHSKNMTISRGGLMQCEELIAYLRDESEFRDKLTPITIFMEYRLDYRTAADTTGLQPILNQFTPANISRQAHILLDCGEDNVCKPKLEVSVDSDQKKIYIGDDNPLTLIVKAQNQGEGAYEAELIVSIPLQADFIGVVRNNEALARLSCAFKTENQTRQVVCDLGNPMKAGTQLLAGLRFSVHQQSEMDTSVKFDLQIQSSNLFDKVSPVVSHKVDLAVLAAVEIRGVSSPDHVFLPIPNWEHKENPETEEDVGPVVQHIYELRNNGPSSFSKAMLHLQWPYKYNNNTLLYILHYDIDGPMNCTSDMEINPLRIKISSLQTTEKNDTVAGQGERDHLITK
T1 sequence (P06756 891-1048 limits assumed): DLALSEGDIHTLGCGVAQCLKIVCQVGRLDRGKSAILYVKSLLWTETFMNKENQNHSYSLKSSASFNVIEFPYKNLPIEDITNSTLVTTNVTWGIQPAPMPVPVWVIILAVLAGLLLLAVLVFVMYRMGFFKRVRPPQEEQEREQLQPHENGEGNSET
T1 sequence (P05106 27-788): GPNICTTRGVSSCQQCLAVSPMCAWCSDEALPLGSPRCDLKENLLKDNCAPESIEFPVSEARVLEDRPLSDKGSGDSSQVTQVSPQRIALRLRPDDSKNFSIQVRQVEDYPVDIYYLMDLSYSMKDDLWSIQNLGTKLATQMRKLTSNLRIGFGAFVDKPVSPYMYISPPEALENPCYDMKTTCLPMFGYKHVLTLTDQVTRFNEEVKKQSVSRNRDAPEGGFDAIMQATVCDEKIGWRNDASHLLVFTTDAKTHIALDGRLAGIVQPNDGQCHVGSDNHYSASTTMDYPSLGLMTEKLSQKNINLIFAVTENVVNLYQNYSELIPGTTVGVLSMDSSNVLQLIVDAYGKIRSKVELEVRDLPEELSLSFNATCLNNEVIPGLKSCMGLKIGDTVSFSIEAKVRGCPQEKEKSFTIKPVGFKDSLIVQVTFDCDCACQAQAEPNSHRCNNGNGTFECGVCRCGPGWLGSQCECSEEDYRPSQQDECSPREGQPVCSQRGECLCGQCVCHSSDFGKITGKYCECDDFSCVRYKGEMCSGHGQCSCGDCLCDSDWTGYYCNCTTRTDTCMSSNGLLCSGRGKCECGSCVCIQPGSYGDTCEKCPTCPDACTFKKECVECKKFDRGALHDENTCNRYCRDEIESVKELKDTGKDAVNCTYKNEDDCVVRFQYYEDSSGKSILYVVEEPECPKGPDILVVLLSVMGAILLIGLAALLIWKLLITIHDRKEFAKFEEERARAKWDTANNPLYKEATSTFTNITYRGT

This test addresses T1, vitronectin receptor αvβ3 (Homo sapiens, UniProt P05106+P06756).
T1 construct: Human placenta is stored at -80° C. immediately after its excision; from tissue; host or cells: human placenta
Kind of test: inhibition of the binding of fibrinogen to vitronectin receptor αvβ3 (ELISA). Conditions: fibrinogen binding to immobilized αvβ3 from human placenta, pH 7.4, read-out: VNR IC50. As for the experimental part: The inhibition of the binding of adhesive proteins such as e.g. fibrinogen to vitronectin receptors (such as e.g. αvβ3, αvβ5, αvβ6, αvβ8, etc. or to the fibrinogen receptor (αIIbβ3) by compounds of formula (I) can be determined as described by L. Alig et al. (J.Med.Chem. 1992, 35, 4393-4407).
In detail thereto, the wells of microtiter plates (Nunc-Immunoplate MaxiSorp) were coated overnight at 4° C. with the vitronectin receptor αvβ3 (from human placenta, 100 μl/well) in a buffer system with 150 mmol/1 NaCl, 1 mmol/CaCl2, 1 mmol/1 MgCl2, 0.0005% Triton X-100 and 20 mmol/1 Tris HCl, pH 7.4. The non-specific binding sites were blocked by incubation with 3.5% bovine serum albumin (BSA from Fluka) at 20° C. for at least 1 h. Before the beginning of the test the plates were washed in each case once with 150 mmol/1 NaCl, 1 mmol/1 CaCl2, 1 mmol/1 MgCl2 and 20 mmol/1 Tris HCl, pH 7.4 (buffer A). The thus-coated plates can be stored for at least 2 months in the presence of 0.05% NaN3 (in buffer A) at 4° C. in a humidity chamber without loss of binding activity. Fibrinogen (IMCO, free from fibronectin) was diluted to 1.5 μg/ml in buffer A in the presence of 1% BSA. The wells coated with the receptor were incubated with fibrinogen (100 μl/well) overnight at room temperature in the absence of or in the presence of increasing concentrations of RGDS (as the reference substance, H-Arg-Gly-Asp-Ser-OH) or the compounds to be measured. Non-bound fibrinogen was removed by three-fold washing with buffer A, bound fibrinogen was detected by an enzyme linked immunosorbent assay (ELISA) procedure. Antibodies of rabbits directed against human fibrinogen (Dakopatts, Denmark), diluted in buffer A in the presence of 0.1% BSA, were added at room temperature for 1 h., followed by incubation with biotinylated antibodies directed against rabbit immunoglobulin (Amersham) for 30 min. […] After addition of the peroxidase substrate ABTS (2,2'-azino-bis(3-ethylbenzothiazoline-6-sulphonic acid), Boehringer Mannheim) the enzyme activity was measured with a multichannel photometer (UVmax, Molecular Devices). […]
In general terms: An ELISA detects its analyte on a solid surface through an enzyme-linked reagent.
As to `COc1cc(NC(=O)c2csc(NC(=O)NCc3ccccc3)n2)ccc1OCC(=O)O` [(4-{[2-(3-benzyl-ureido)-thiazole-4-carbonyl]-amino}-2-methoxy-phenoxy)-acetic acid], the IC50 is 0.2 nM.
Under `O=C(O)COc1ccc(NC(=O)c2csc(NC(=O)NCc3ccccc3)n2)cc1` [[4-[[2-(3-benzyl-ureido)-thiazole-4-carbonyl]-amino]-phenoxy]-acetic acid] stands 1 nM; under `O=C(O)COc1ccc(NC(=O)c2csc(NC(=O)NCc3ccccc3)n2)cc1C(=O)O` [5-{[2-(3-benzyl-ureido)-thiazole-4-carbonyl]-amino}-2-carboxymethoxy-benzoic acid], 1.3 nM.

Usually IC50 stands for the midpoint of a concentration-inhibition curve.
